Test results published in PMC9974468 (Proceedings of the National Academy of Sciences of the …, 2023).

Legend:
Format in all cases: binding
[1] = target: FGFR2K (FGFR2 kinase domain) (Homo sapiens, UniProt P21802, C491A); test: NMR titration, 1H/[…] HMQC chemical shift perturbation
[2] = target: FGFR2K V564E^0Y (FGFR2 kinase domain) (Homo sapiens, UniProt P21802, C491A/V564E/Y466F/Y586L/Y588P/Y656F/Y657F); test: NMR titration, 1H/[…] methyl HMQC chemical shift perturbation
[3] = target: FGFR2K WT^0Y (FGFR2 kinase domain) (Homo sapiens, UniProt P21802, C491A/Y466F/Y586L/Y588P/Y656F/Y657F); test: as above
Chain of FGFR2K WT^0Y (FGFR2 kinase domain) (P21802 458-768 Y466F/C491A/Y586L/Y588P/Y656F/Y657F): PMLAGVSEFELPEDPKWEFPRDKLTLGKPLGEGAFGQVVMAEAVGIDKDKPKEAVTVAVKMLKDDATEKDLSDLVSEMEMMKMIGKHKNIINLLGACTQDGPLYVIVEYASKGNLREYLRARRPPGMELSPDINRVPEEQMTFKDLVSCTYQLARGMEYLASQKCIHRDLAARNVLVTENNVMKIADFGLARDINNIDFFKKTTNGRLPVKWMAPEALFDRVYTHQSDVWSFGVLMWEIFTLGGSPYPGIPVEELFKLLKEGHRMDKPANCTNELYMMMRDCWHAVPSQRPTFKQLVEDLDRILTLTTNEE

[4] = target: FGFR2K V564I^0Y (FGFR2 kinase domain) (Homo sapiens, UniProt P21802, C491A/V564I/Y466F/Y586L/Y588P/Y656F/Y657F); test: as above
Chain of FGFR2K V564I^0Y (FGFR2 kinase domain) (P21802 458-768 Y466F/C491A/V564I/Y586L/Y588P/Y656F/Y657F): as the sequence (P21802 458-768 Y466F/C491A/Y586L/Y588P/Y656F/Y657F) above, with V107I counted along it

Chain of FGFR2K V564E^0Y (FGFR2 kinase domain) (P21802 458-768 Y466F/C491A/V564E/Y586L/Y588P/Y656F/Y657F): as the sequence (P21802 458-768 Y466F/C491A/Y586L/Y588P/Y656F/Y657F) above, with V107E counted along it
Chain of FGFR2K (FGFR2 kinase domain) (P21802 458-768 C491A): as the sequence (P21802 458-768 Y466F/C491A/Y586L/Y588P/Y656F/Y657F) above, with F9Y, L129Y, P131Y, F199Y, F200Y counted along it

Structure (SMILES) | Kd [1] [mM] | Kd [2] [µM] | Kd [3] [µM] | Kd [4] [µM]
Nc1ncnc2c1ncn2[C@@H]1O[C@H](COP(=O)(O)OP(=O)(O)CP(=O)(O)O)[C@@H](O)[C@H]1O [AMP-PCP] | 2.9 ± 0.1 |  |  | 
Nc1ncnc2c1ncn2[C@@H]1O[C@H](COP(=O)(O)OP(=O)(O)OP(=O)(O)O)[C@@H](O)[C@H]1O [ATP] |  | 140 ± 20 | 450 ± 70 | 280 ± 30
